Experimental data reported in paper PMC9457575 (Molecules, 2022).
Entries after “also recorded” stand apart in the source; their conditions may differ. Read-outs that look alike come from different tables or passages of the source.

Tests used:
[1] = Pharmacokinetic evaluation of brain exposure in mice; design: species or system C57BL/6 mice; conditions: female, C57BL/6, mouse, in vivo, C57BL6 mice, 3 mg/kg IP; for Cmax: brain, 0.5-4 h, read-out: brain maximum (Cmax) concentration; for Kp: read-out: brain:plasma Cmax ratio
Experimental: Female C57BL/6 mice were bred in house and used at ~10 weeks of age for pharmacokinetic (PK) testing. Three animals were tested per time point. Doses were formulated in 2% NMP in canola oil, and all compounds were delivered at 3 mg/kg by intraperitoneal injection (IP). Tissues were taken at 0.5, 1, 2, and 4 h post dose. Animals were subjected to whole body perfusion using saline prior to tissue collection. Brain samples were homogenized with 50:50 ethanol:water (1:5, v/v). Forty µL of the homogenate, 10 µL of acetonitrile, and 150 µL of 100 ng/mL reserpine in acetonitrile containing 0.1% formic acid were vortexed and centrifuged. Plasma samples were diluted with 10 µL of acetonitrile, 150 µL of 100 ng/mL reserpine in acetonitrile containing 0.1% formic acid, vortexed and centrifuged. Samples were subjected to LC/MS/MS analysis. Standards were prepared in blank samples and used for calibration curves. Chromatography was performed using a Phenomenex Luna C18 column.

[2] = target: T1, human CB1 receptor (hCB1) (Homo sapiens, UniProt P21554); test: cAMP accumulation assay (Lance TR-FRET) in CHO-hCB1 cells; format: cell-based; conditions: for hCB1 cAMP Efficacy: % of the maximum CP55940 (full agonist) signal; for hCB1 cAMP Efficacy / EC50 / Emax / hCB1 cAMP EC50: mean ± SEM; for EC50 / hCB1 cAMP EC50: forskolin-stimulated; for Emax: read-out: hCB1 cAMP Efficacy, % of the maximum CP55940 (full agonist) signal
T1 construct: host or cells: Chinese Hamster Ovary (CHO) cells
T1 sequence (P21554 whole entry): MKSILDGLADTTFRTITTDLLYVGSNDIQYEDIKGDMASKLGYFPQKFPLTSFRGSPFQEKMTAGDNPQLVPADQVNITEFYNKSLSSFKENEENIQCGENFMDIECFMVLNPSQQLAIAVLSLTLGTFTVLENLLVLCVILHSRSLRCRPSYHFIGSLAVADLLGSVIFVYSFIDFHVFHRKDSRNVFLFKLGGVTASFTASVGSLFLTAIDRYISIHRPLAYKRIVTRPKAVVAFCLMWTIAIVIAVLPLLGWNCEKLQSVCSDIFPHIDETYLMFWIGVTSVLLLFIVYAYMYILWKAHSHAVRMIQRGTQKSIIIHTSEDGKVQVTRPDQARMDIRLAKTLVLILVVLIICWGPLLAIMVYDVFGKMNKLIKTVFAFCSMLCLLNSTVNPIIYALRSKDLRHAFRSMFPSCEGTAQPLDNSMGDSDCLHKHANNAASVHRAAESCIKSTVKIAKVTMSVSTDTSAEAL
Experimental: The cAMP assays were performed in Chinese Hamster Ovary (CHO) cells (Perkin Elmer, Cat # ES-110-C) stably expressing the human CB1 receptor (hCB1) cultured under standard cell culture conditions (37 °C, 5% carbon dioxide, DMEM media with 1% Penicillin/Streptomycin and 400 µg/mL G418) using the Lance™ assay kit and manufacturer’s instructions were closely followed (Perkin Elmer). In brief, stimulation buffer containing 1X Hank’s Balanced Salt Solution (HBSS), 5 mM HEPES, 0.1% BSA stabilizer, and 0.5 mM final IBMX was prepared and titrated to pH 7.4 at rt. Serial dilutions of the test compounds and 300 nM forskolin, both prepared at 4× the desired final concentration in stimulation buffer, were added to a 96-well white ½ area microplate (PerkinElmer). The CHO-hCB1 cells were lifted with a non-enzymatic solution (Cell-stripper, Mediatech Inc., Orlando, FL, USA), and 4000 cells were added to each well. After incubating for 30 min at room temperature, Eu-cAMP tracer and uLIGHT-anti-cAMP working solutions were added per the manufacturer’s instructions. After incubation for 1 h, the TR-FRET signal (ex 337 nm, em 620 and […]) was read on a CLARIO star multimode plate reader (BMG Biotech, Cary, NC, USA). Data were analyzed using Prism software (GraphPad, La Jolla, CA, USA). Nonlinear regression analysis was performed to fit data and obtain maximum response (Emax), EC50, correlation coefficient (r^2), and other parameters. All experiments were performed in duplicate 2–3 times to ensure reproducibility and data are reported as mean ± standard error of mean unless noted otherwise.

[3] = target: hCB1 (Homo sapiens, UniProt P21554); test: Radioligand displacement of [3H]CP55940; conditions: average of 3 measurements, read-out: Binding affinity (Ki)
hCB1, sequence (P21554 whole entry): as above
Experimental: Further characterization of 21 was performed using radioligand displacement of [^3H]CP55940 and equilibrium dissociation constant (Ki) value was determined as described previously. Data reported are average values from 3 measurements with <30% standard error.

[4] = hCB1 cAMP EC50, CHO cells stably expressing hCB1
[5] = CHO cells stably expressing hCB1, read-out: hCB1 cAMP EC50
[6] = CHO cells stably expressing hCB1

With N#Cc1c(Oc2cccc(OS(=O)(=O)CCCC(F)(F)F)c2)cccc1C(F)(F)F [Compound 1, 3-[2-Cyano-3-(trifluoromethyl)phenoxy]phenyl-4,4,4-trifluoro-1-butanesulfonate, reference compound] the Cmax [1] was ~341 ng/mL, the Kp [1] was 0.4 and the “hCB1 cAMP Efficacy” value [2] was 39 ± 11%. The EC50 [2, 4] was 0.046 ± 0.005 µM.
Work on N#Cc1c(Oc2cccc(NS(=O)(=O)CCCC(F)(F)F)c2)cccc1C(F)(F)F [Compound 4, N-{3-[2-Cyano-3-(trifluoromethyl)phenoxy]phenyl}-4,4,4-trifluorobutane-1-sulfonamide] yielded a melting point of 96 to 97 °C, an EC50 [2, 5] of 0.19 ± 0.046 µM and an Emax [2] of 96%.
For O=S(=O)(CCCC(F)(F)F)Nc1cccc(Oc2cccc(C(F)(F)F)c2Cl)c1 [Compound 5, N-{3-[2-Chloro-3-(trifluoromethyl)phenoxy]phenyl}-4,4,4-trifluorobutane-1-sulfonamide], the EC50 [2, 5] was 0.175 ± 0.042 µM and the Emax [2] was 95%.
In the case of N#Cc1ccccc1Oc1cccc(NS(=O)(=O)CCCC(F)(F)F)c1 [Compound 6, N-[3-(2-Cyanophenoxy)phenyl]-4,4,4-trifluorobutane-1-sulfonamide], the EC50 [2, 5] is reported as 0.106 ± 0.008 µM and the Emax [2] is reported as 95%.
CCCCCS(=O)(=O)Nc1cccc(Oc2cccc(C(F)(F)F)c2C#N)c1 [Compound 7, N-{3-[2-Cyano-3-(trifluoromethyl)phenoxy]phenyl}pentane-1-sulfonamide] showed an EC50 [2, 5] of 0.248 ± 0.108 µM and an Emax [2] of 76%.
N#Cc1c(Oc2cccc(NS(=O)(=O)Cc3ccccc3)c2)cccc1C(F)(F)F [Compound 8, N-{3-[2-Cyano-3-(trifluoromethyl)phenoxy]phenyl}-1-phenylmethanesulfonamide] showed a melting point of 131 to 132 °C, an EC50 [2, 5] of 0.228 ± 0.134 µM and an Emax [2] of 102%.
O=S(=O)(Cc1ccccc1)Nc1cccc(Oc2cccc(C(F)(F)F)c2Cl)c1 [Compound 9, N-{3-[2-Chloro-3-(trifluoromethyl)phenoxy]phenyl}-1-phenylmethanesulfonamide] showed a melting point of 129 to 130 °C, an EC50 [2, 5] of 0.255 ± 0.062 µM and an Emax [2] of 78%.
N#Cc1ccccc1Oc1cccc(NS(=O)(=O)Cc2ccccc2)c1 [Compound 10, N-[3-(2-Cyanophenoxy)phenyl]-1-phenylmethanesulfonamide] gave an EC50 [2, 5] of 0.164 ± 0.032 µM and an Emax [2] of 82%.
In the case of N#Cc1c(Oc2cccc(NS(=O)(=O)Cc3ccccc3Cl)c2)cccc1C(F)(F)F [Compound 11, 1-(2-Chlorophenyl)-N-{3-[2-cyano-3-(trifluoromethyl)phenoxy]phenyl}methanesulfonamide], the melting point is reported as 121 to 122 °C and the “hCB1 cAMP EC50” value [2, 6] is reported as “loss of activity; also recorded: Inactive”.
In the case of N#Cc1c(Oc2cccc(NS(=O)(=O)Cc3cccc(Cl)c3)c2)cccc1C(F)(F)F [Compound 12, 1-(3-Chlorophenyl)-N-{3-[2-cyano-3-(trifluoromethyl)phenoxy]phenyl}methanesulfonamide], the melting point is reported as 144 to 145 °C and the “hCB1 cAMP EC50” value [2, 6] is reported as “loss of activity; also recorded: Inactive”.
For N#Cc1c(Oc2cccc(NS(=O)(=O)Cc3ccc(Cl)cc3)c2)cccc1C(F)(F)F [Compound 13, 1-(4-Chlorophenyl)-N-{3-[2-cyano-3-(trifluoromethyl)phenoxy]phenyl}methanesulfonamide], the melting point was 115 to 116 °C, the “hCB1 cAMP potency compared to the unsubstituted benzylsulfonamide 8” value ([2]; fold more potent than 8) was “about 10 ×” and the EC50 [2, 4] was 0.025 ± 0.004 µM. The Emax [2] was 95%.
For N#Cc1c(Oc2cccc(NS(=O)(=O)c3cccc(OC(F)(F)F)c3)c2)cccc1C(F)(F)F [Compound 14, N-{3-[2-Cyano-3-(trifluoromethyl)phenoxy]phenyl}-3-(trifluoromethoxy)benzene-1-sulfonamide], the melting point was 120 to 121 °C and the “hCB1 cAMP EC50” value [2, 6] was “Inactive”.
In the case of N#Cc1c(Oc2cccc(NS(=O)(=O)c3ccc(OC(F)(F)F)cc3)c2)cccc1C(F)(F)F [Compound 15, N-{3-[2-Cyano-3-(trifluoromethyl)phenoxy]phenyl}-4-(trifluoromethoxy)benzene-1-sulfonamide], the melting point is reported as 164 to 165 °C and the “hCB1 cAMP EC50” value [2, 6] is reported as “Inactive”.
With CCCCCC(=O)Nc1cccc(Oc2cccc(C(F)(F)F)c2C#N)c1 [Compound 16, N-{3-[2-Cyano-3-(trifluoromethyl)phenoxy]phenyl}hexanamide] the melting point was 95 to 96 °C and the “hCB1 cAMP EC50” value [2, 6] was “Inactive”.
In the case of CCCCOC(=O)Nc1cccc(Oc2cccc(C(F)(F)F)c2C#N)c1 [Compound 17, Butyl N-{3-[2-Cyano-3-(trifluoromethyl)phenoxy]phenyl}carbamate], the “hCB1 cAMP EC50” value [2, 6] is reported as “Inactive”.
In the case of CCCCNC(=O)Nc1cccc(Oc2cccc(C(F)(F)F)c2C#N)c1 [Compound 18, 3-Butyl-1-{3-[2-cyano-3-(trifluoromethyl)phenoxy]phenyl}urea], the “hCB1 cAMP EC50” value [2, 6] is reported as “Inactive”.
In the case of CCCCN(C)C(=O)Nc1cccc(Oc2cccc(C(F)(F)F)c2C#N)c1 [Compound 19, 3-Butyl-1-{3-[2-cyano-3-(trifluoromethyl)phenoxy]phenyl}-3-methylurea], the “hCB1 cAMP EC50” value [2, 6] is reported as “Inactive”.
For N#Cc1c(Oc2cccc(NC(=O)Cc3ccccc3)c2)cccc1C(F)(F)F [Compound 20, N-{3-[2-Cyano-3-(trifluoromethyl)phenoxy]phenyl}-2-phenylacetamide], the melting point was 136 to 137 °C, the EC50 [2, 5] was 0.474 ± 0.174 µM and the Emax [2] was < 20%.
In the case of N#Cc1c(Oc2cccc(NS(=O)(=O)NC3CCCCC3)c2)cccc1C(F)(F)F [Compound 21, N-Cyclohexyl({3-[2-cyano-3-(trifluoromethyl)phenoxy]phenyl}mamino)sulfonamide], the Cmax [1] is reported as ~75 ng/mL, the Kp [1] is reported as 0.17 and the melting point is reported as 199 to 200 °C. For the same compound, the Ki [3] was ~1.5 µM, the “hCB1 cAMP Efficacy” value [2] was 27 ± 18% and the EC50 [2, 4] was 0.139 ± 0.024 µM. For the same compound, the Emax [2] was 27%.
With CCCCCS(=O)(=O)Nc1ccc(Oc2cccc(C(F)(F)F)c2C#N)cc1 [Compound 22, N-{4-[2-Cyano-3-(trifluoromethyl)phenoxy]phenyl}pentane-1-sulfonamide] the melting point was 94 to 95 °C and the “hCB1 cAMP EC50” value [2, 6] was “Inactive”.
With N#Cc1c(Oc2ccc(NS(=O)(=O)Cc3ccccc3)cc2)cccc1C(F)(F)F [Compound 23, N-{4-[2-Cyano-3-(trifluoromethyl)phenoxy]phenyl}-1-phenylmethanesulfonamide] the melting point was 166 to 167 °C and the “hCB1 cAMP EC50” value [2, 6] was “Inactive”.
N#Cc1c(Oc2ccc(NC(=O)Cc3ccccc3)cc2)cccc1C(F)(F)F [Compound 24, N-{4-[2-Cyano-3-(trifluoromethyl)phenoxy]phenyl}-2-phenylacetamide] gave a Cmax [1] of ~730 ng/mL, a Kp [1] of 0.79 and a melting point of 200 to 201 °C. The “hCB1 cAMP Efficacy” value [2] was 36 ± 14%, the EC50 [2, 5] was 0.366 ± 0.136 µM and the Emax [2] was 36%.
